Structures can show the parent of a compound that is named as a salt.
Tests used:
Type in all cases: biochemical
[1] = biological target: T1, AKT1 (Homo sapiens, UniProt P31749); assay: AKT Kinase Assay (IMAP fluorescent polarisation) vs AKT1; conditions: activated AKT1, FAM Crosstide substrate
T1 construct: purchased SignalChem
Summary of the method: (§1)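 Each activated AKT isoform, at a pre-determined linear-range concentration, was pre-incubated 45 min at room temperature with compound in a fourteen-point half-log series. ATP plus 5′FAM-Crosstide then reacted 1 h; IMAP binding reagent stopped it (1 h). Fluorescence polarisation (ex 485/em 528 nm) versus vehicle gave IC50 by non-linear regression.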

[2] = biological target: T2, AKT2 (Homo sapiens, UniProt P31751); assay: AKT Kinase Assay (IMAP fluorescent polarisation) vs AKT2; conditions: activated AKT2, FAM Crosstide substrate
T2 construct: purchased SignalChem
T2 sequence (P31751 whole entry): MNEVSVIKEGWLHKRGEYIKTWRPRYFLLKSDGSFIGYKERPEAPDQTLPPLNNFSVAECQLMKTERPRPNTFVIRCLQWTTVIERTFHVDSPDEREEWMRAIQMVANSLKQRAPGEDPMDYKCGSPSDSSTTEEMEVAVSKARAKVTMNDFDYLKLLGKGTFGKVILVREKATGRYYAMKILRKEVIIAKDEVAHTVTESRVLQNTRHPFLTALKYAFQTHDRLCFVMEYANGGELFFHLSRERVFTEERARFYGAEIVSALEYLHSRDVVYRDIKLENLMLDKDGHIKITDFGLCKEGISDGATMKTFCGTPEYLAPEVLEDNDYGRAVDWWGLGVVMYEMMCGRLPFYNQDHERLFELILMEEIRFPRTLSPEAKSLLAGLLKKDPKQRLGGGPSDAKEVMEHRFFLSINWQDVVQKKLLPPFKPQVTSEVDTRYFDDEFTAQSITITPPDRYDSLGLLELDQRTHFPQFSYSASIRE
Summary of the method: as §1

[3] = biological target: T3, AKT3 (Homo sapiens, UniProt Q9Y243); assay: AKT Kinase Assay (IMAP fluorescent polarisation) vs AKT3; conditions: activated AKT3, FAM Crosstide substrate
T3 construct: purchased SignalChem
T3 sequence (Q9Y243 whole entry): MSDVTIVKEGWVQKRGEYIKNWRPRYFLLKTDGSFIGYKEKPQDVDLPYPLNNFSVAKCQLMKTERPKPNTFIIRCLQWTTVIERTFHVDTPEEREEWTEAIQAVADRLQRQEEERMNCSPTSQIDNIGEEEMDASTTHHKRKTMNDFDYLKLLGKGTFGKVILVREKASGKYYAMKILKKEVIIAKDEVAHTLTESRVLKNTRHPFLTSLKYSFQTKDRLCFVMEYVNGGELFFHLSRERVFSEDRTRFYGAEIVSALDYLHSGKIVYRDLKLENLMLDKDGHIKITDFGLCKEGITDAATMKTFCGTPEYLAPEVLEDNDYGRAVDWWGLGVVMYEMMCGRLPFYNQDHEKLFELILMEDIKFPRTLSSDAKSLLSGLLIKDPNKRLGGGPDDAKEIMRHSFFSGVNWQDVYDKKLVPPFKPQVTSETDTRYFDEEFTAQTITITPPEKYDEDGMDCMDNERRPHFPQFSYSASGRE
Summary of the method: as §1

T1 sequence (P31749 whole entry): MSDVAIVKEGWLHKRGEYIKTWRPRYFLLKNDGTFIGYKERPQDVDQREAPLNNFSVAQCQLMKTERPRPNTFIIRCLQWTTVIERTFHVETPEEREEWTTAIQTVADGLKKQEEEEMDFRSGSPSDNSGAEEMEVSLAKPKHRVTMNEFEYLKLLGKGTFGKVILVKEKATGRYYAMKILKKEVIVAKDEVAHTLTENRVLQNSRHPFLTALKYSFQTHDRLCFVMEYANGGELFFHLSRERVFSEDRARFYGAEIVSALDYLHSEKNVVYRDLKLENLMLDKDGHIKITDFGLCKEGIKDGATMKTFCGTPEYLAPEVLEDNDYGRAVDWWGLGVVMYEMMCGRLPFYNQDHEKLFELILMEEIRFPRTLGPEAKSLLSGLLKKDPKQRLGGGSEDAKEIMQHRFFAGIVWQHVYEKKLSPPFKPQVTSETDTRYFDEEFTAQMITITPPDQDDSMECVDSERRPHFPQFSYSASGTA

Compound: NC1(c2ccc(-c3oc4ncn(CC(F)F)c(=O)c4c3-c3ccccc3)cc2)CCC1 [Example 108, 6-(4-(1-Aminocyclobutyl)phenyl)-3-(2,2-difluoroethyl)-5-phenylfuro[2,3-d]pyrimidin-4(3H)-one]
- IC50 [1]: 1000 to 10000 nM
- IC50 [2]: ≤ 100 nM
- IC50 [3]: 1000 to 10000 nM

Compound: NC1(c2ccc(-c3oc4ccn(CC(F)(F)F)c(=O)c4c3-c3ccccc3)cc2)CCC1 [Example 109, 2-(4-(1-Aminocyclobutyl)phenyl)-3-Phenyl-5-(2,2,2-trifluoroethyl)furo[3,2-c]pyridin-4(5H)-one, HCl]
- IC50 [1]: 1000 to 10000 nM
- IC50 [2]: ≤ 100 nM
- IC50 [3]: > 10000 nM

Compound: NC1(c2ccc(-c3oc4nc(NCCO)n(CCF)c(=O)c4c3-c3ccccc3)cc2)CCC1 [Example 110, 6-(4-(1-Aminocyclobutyl)phenyl)-3-(2-fluoroethyl)-2-(2-hydroxyethylamino)-5-phenylfuro[2,3-d]pyrimidin-4(3H)-one]
- IC50 [1]: 1000 to 10000 nM
- IC50 [2]: ≤ 100 nM
- IC50 [3]: 1000 to 10000 nM

Compound: NC1(c2ccc(-c3oc4nc(NCCO)nc(OCCF)c4c3-c3ccccc3)cc2)CCC1 [Example 111, 2-((6-(4-(1-Aminocyclobutyl)phenyl)-4-(2-fluoroethoxy)-5-phenylfuro[2,3-d]pyrimidin-2-yl)amino)ethanol]
- IC50 [1]: ≤ 100 nM
- IC50 [2]: 100 to 1000 nM
- IC50 [3]: 1000 to 10000 nM

Compound: NC1(c2ccc(-c3oc4c(Br)cn(CCF)c(=O)c4c3-c3ccccc3)cc2)CCC1 [Example 112]
- IC50 [1]: 100 to 1000 nM
- IC50 [2]: ≤ 100 nM
- IC50 [3]: > 10000 nM

Compound: Cn1cc(-c2cn(CCF)c(=O)c3c(-c4ccccc4)c(-c4ccc(C5(N)CCC5)cc4)oc23)cn1 [Example 113, 2-(4-(1-Aminocyclobutyl)phenyl)-5-(2-fluoroethyl)-7-(1-methyl-1H-pyrazol-4-yl)-3-phenylfuro[3,2-d]pyridin-4(5H)-one]
- IC50 [1]: 100 to 1000 nM
- IC50 [2]: 100 to 1000 nM
- IC50 [3]: 1000 to 10000 nM

Compound: Cn1cc(-c2cn(C)c(=O)c3c(-c4ccccc4)c(-c4ccc(C5(N)CCC5)cc4)oc23)cn1 [Example 114, 2-(4-(1-Aminocyclobutyl)phenyl)-5-methyl-7-(1-methyl-1H-pyrazol-4-yl)-3-phenylfuro[3,2-c]pyridin-4(5H)-one]
- IC50 [1]: 100 to 1000 nM
- IC50 [2]: 100 to 1000 nM
- IC50 [3]: 1000 to 10000 nM

Compound: Cn1cc(-c2cncnc2)c2oc(-c3ccc(C4(N)CCC4)cc3)c(-c3ccccc3)c2c1=O [Example 115, 2-(4-(1-Aminocyclobutyl)phenyl)-5-methyl-3-phenyl-7-(pyrimidin-5-yl)furo[3,2-c]pyridin-4(5H)-one]
- IC50 [1]: 100 to 1000 nM
- IC50 [2]: 1000 to 10000 nM
- IC50 [3]: > 10000 nM

Compound: Cn1cc(-c2ccn[nH]2)c2oc(-c3ccc(C4(N)CCC4)cc3)c(-c3ccccc3)c2c1=O [Example 116, 2-(4-(1-Aminocyclobutyl)phenyl)-5-methyl-3-phenyl-7-(1H-pyrazol-5-yl)furo[3,2-c]pyridin-4(5H)-one]
- IC50 [1]: ≤ 100 nM
- IC50 [2]: 100 to 1000 nM
- IC50 [3]: > 10000 nM

Compound: Cn1cc(C(N)=O)c2oc(-c3ccc(C4(N)CCC4)cc3)c(-c3ccccc3)c2c1=O [Example 117, 2-(4-(1-Aminocyclobutyl)phenyl)-5-methyl-4-oxo-3-phenyl-4,5-dihydrofuro[3,2-c]pyridine-7-carboxamide]
- IC50 [1]: 100 to 1000 nM
- IC50 [2]: 100 to 1000 nM
- IC50 [3]: 1000 to 10000 nM

Compound: COC(=O)c1cn(C)c(=O)c2c(-c3ccccc3)c(-c3ccc(C4(N)CCC4)cc3)oc12 [Example 118, Methyl 2-(4-(1-aminocyclobutyl)phenyl)-5-methyl-4-oxo-3-phenyl-4,5-dihydrofuro[3,2-c]pyridine-7-carboxylate]
- IC50 [1]: ≤ 100 nM
- IC50 [2]: 100 to 1000 nM
- IC50 [3]: 1000 to 10000 nM

Compound: CNC(=O)c1cn(C)c(=O)c2c(-c3ccccc3)c(-c3ccc(C4(N)CCC4)cc3)oc12 [Example 119, 2-(4-(1-Aminocyclobutyl)phenyl)-N,5-dimethyl-4-oxo-3-phenyl-4,5-dihydrofuro[3,2-c]pyridine-7-carboxamide]
- IC50 [1]: 100 to 1000 nM
- IC50 [2]: 100 to 1000 nM
- IC50 [3]: > 10000 nM

Compound: Cn1cc(C(=O)NCCO)c2oc(-c3ccc(C4(N)CCC4)cc3)c(-c3ccccc3)c2c1=O [Example 120, 2-(4-(1-Aminocyclobutyl)phenyl)-N-(2-hydroxyethyl)-5-methyl-4-oxo-3-phenyl-4,5-dihydrofuro[3,2-c]pyridine-7-carboxamide]
- IC50 [1]: 100 to 1000 nM
- IC50 [2]: 100 to 1000 nM
- IC50 [3]: > 10000 nM

Compound: NC1(c2ccc(-c3oc4nc(NCCO)n(CC(F)(F)F)c(=O)c4c3-c3ccccc3)cc2)CCC1 [Example 121, 6-(4-(1-Aminocyclobutyl)phenyl)-2-((2-hydroxyethyl)amino)-5-phenyl-3-(2,2,2-trifluoroethyl)furo[2,3-d]pyrimidin-4(3H)-one]
- IC50 [1]: 100 to 1000 nM
- IC50 [2]: ≤ 100 nM
- IC50 [3]: 1000 to 10000 nM

Compound: CNc1nc2oc(-c3ccc(C4(N)CCC4)cc3)c(-c3ccccc3)c2c(=O)n1CC(F)(F)F [Example 122, 6-(4-(1-Aminocyclobutyl)phenyl)-2-(methylamino)-5-phenyl-3-(2,2,2-trifluoroethyl)furo[2,3-d]pyrimidin-4(3H)-one]
- IC50 [1]: 100 to 1000 nM
- IC50 [2]: ≤ 100 nM
- IC50 [3]: 1000 to 10000 nM

Compound: Cc1nc2oc(-c3ccc(C4(N)CCC4)cc3)c(-c3ccccc3)c2c(=O)n1CC(F)(F)F [Example 123, 6-(4-(1-Aminocyclobutyl)phenyl)-2-methyl-5-phenyl-3-(2,2,2-trifluoroethyl)furo[2,3-d]pyrimidin-4(3H)-one]
- IC50 [1]: 100 to 1000 nM
- IC50 [2]: ≤ 100 nM
- IC50 [3]: 1000 to 10000 nM

Compound: Cn1c(=O)[nH]c2oc(-c3ccc(C4(N)CCC4)cc3)c(-c3ccccc3)c2c1=O [Example 124, 6-(4-(1-Aminocyclobutyl)phenyl)-3-methyl-5-phenylfuro[2,3-d]pyrimidine-2,4(1H,3H)-dione hydrochloride]
- IC50 [1]: 100 to 1000 nM
- IC50 [2]: 100 to 1000 nM
- IC50 [3]: > 10000 nM

Compound: Cn1c(=O)c2c(-c3ccccc3)c(-c3ccc(C4(N)CCC4)cc3)oc2n(C)c1=O [Example 125, 6-(4-(1-Aminocyclobutyl)phenyl)-1,3-dimethyl-5-phenylfuro[2,3-d]pyrimidine-2,4(1H,3H)-dione]
- IC50 [1]: 100 to 1000 nM
- IC50 [2]: 1000 to 10000 nM
- IC50 [3]: > 10000 nM

Compound: COc1nccc2c(-c3ccccc3)c(-c3ccc(C4(N)CCC4)cc3)oc12 [Example 126, 1-(4-(7-Methoxy-3-phenylfuro[2,3-c]pyridin-2-yl)phenyl)cyclobutanamine]
- IC50 [1]: 100 to 1000 nM
- IC50 [2]: 100 to 1000 nM
- IC50 [3]: > 10000 nM

Compound: COc1nccc2c(I)c(-c3ccc(C4(N)CCC4)cc3)oc12 [Example 127, 1-(4-(3-Iodo-7-methoxyfuro[2,3-c]pyridin-2-yl)phenyl)cyclobutanamine]
- IC50 [1]: > 10000 nM
- IC50 [2]: 1000 to 10000 nM
- IC50 [3]: > 10000 nM

Compound: NC1(c2ccc(-c3oc4c(=O)[nH]ccc4c3-c3ccccc3)cc2)CCC1 [Example 128, 2-(4-(1-Aminocyclobutyl)phenyl)-3-phenylfuro[2,3-d]pyridin-7(6H)-one]
- IC50 [1]: 100 to 1000 nM
- IC50 [2]: 1000 to 10000 nM
- IC50 [3]: 1000 to 10000 nM

Compound: Cn1ccc2c(-c3ccccc3)c(-c3ccc(C4(N)CCC4)cc3)oc2c1=O [Example 129, 2-(4-(1-Aminocyclobutyl)phenyl)-6-methyl-3-phenylfuro[2,3-c]pyridin-7(6H)-one]
- IC50 [1]: 100 to 1000 nM
- IC50 [2]: 100 to 1000 nM
- IC50 [3]: 1000 to 10000 nM

Compound: NC1(c2ccc(-c3oc4c(=O)n(CCF)ccc4c3-c3ccccc3)cc2)CCC1 [Example 130, 2-(4-(1-Aminocyclobutyl)phenyl)-6-(2-fluoroethyl)-3-phenylfuro[2,3-c]pyridin-7(6H)-one]
- IC50 [1]: 1000 to 10000 nM
- IC50 [2]: 100 to 1000 nM
- IC50 [3]: > 10000 nM

Compound: NC1(c2ccc(-c3oc4c(=O)n(CCCO)ccc4c3-c3ccccc3)cc2)CCC1 [Example 131, 2-(4-(1-Aminocyclobutyl)phenyl)-6-(3-hydroxypropyl)-3-phenylfuro[2,3-c]pyridin-7(6H)-one]
- IC50 [1]: 1000 to 10000 nM
- IC50 [2]: 100 to 1000 nM
- IC50 [3]: 1000 to 10000 nM

Compound: COc1ncc(Br)c2c(-c3ccccc3)c(-c3ccc(C4(N)CCC4)cc3)oc12 [Example 132, 1-(4-(4-Bromo-7-methoxy-3-phenylfuro[2,3-c]pyridin-2-yl)phenyl)cyclobutanamine]
- IC50 [1]: 100 to 1000 nM
- IC50 [2]: 100 to 1000 nM
- IC50 [3]: > 10000 nM

Compound: NC1(c2ccc(-c3oc4ccnc(-c5cn[nH]c5)c4c3-c3ccccc3)cc2)CCC1 [Example 133, 1-(4-(3-Phenyl-4-(1H-pyrazol-4-yl)furo[3,2-c]pyridin-2-yl)phenyl)cyclobutanamine]
- IC50 [1]: 1000 to 10000 nM
- IC50 [2]: 1000 to 10000 nM
- IC50 [3]: > 10000 nM

Compound: NC1(c2ccc(-c3oc4ncc(Cl)nc4c3-c3ccccc3)cc2)CCC1 [Example 134, 1-(4-(2-Chloro-7-phenylfuro[2,3-b]pyrazin-6-yl)phenyl)cyclobutanamine]
- IC50 [1]: 100 to 1000 nM
- IC50 [2]: 1000 to 10000 nM
- IC50 [3]: > 10000 nM

Compound: NC1(c2ccc(-c3oc4ncc(-c5cn[nH]c5)nc4c3-c3ccccc3)cc2)CCC1 [Example 135, 1-(4-(7-Phenyl-2-(1H-pyrazol-4-yl)furo[2,3-b]pyrazin-6-yl)phenyl)cyclobutanamine]
- IC50 [1]: 100 to 1000 nM
- IC50 [2]: 100 to 1000 nM
- IC50 [3]: 100 to 1000 nM

Compound: Cn1cc(-c2cnc3oc(-c4ccc(C5(N)CCC5)cc4)c(-c4ccccc4)c3n2)cn1 [Example 136, 1-(4-(2-(1-Methyl-1H-pyrazol-4-yl)-7-phenylfuro[2,3-b]pyrazin-6-yl)phenyl)cyclobutanamine]
- IC50 [1]: 1000 to 10000 nM
- IC50 [2]: 1000 to 10000 nM
- IC50 [3]: > 10000 nM

Compound: Cn1nccc1-c1cnc2oc(-c3ccc(C4(N)CCC4)cc3)c(-c3ccccc3)c2n1 [Example 137, 1-(4-(2-(1-methyl-1H-pyrazol-5-yl)-7-phenylfuro[2,3-b]pyrazin-6-yl)phenyl)cyclobutanamine]
- IC50 [1]: 100 to 1000 nM
- IC50 [2]: 1000 to 10000 nM
- IC50 [3]: > 10000 nM
